The values below are quoted from earlier work in publication PMC9516332 (Frontiers in Oncology, 2022).

Structures are written as SMILES. Where two headings read alike, the source gives them in different places.

For series [1], the target named is panel of 255 wild-type kinases (Homo sapiens, UniProt P49760). Particulars: kinase CLK2, 1 µmol/L single concentration, cited from earlier work.
Series [2] concerns the target T1, panel of 255 wild-type kinases (Homo sapiens, UniProt Q9NWZ3).
T1 sequence (Q9NWZ3 1-460): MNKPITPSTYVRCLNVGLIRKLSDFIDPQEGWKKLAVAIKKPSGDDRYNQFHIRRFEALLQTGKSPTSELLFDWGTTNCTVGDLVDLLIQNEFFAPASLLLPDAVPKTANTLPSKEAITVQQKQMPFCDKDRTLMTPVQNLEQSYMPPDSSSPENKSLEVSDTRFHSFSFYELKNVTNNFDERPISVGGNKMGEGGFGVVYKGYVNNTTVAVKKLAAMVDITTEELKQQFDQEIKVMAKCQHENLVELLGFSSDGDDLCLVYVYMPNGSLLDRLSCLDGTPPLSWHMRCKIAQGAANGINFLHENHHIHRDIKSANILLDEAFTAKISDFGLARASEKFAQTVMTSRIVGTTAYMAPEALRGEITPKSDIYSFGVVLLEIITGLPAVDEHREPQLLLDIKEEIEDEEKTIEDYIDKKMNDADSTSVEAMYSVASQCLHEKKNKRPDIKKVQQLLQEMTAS
Particulars: kinase IRAK4, 1 µmol/L single concentration, cited from earlier work.

Series [3] addresses panel of 255 wild-type kinases (Homo sapiens, UniProt P08069). Particulars: kinase IGF1R, 1 µmol/L single concentration, cited from earlier work.
For series [4], the target named is panel of 255 wild-type kinases (Homo sapiens, UniProt P43405). Particulars: kinase SYK, 1 µmol/L single concentration, cited from earlier work.
The target of series [5] is panel of 255 wild-type kinases (Homo sapiens, UniProt Q8N4C8). Particulars: MINK, 1 µmol/L single concentration, cited from earlier work.
Series [6] deals with panel of 255 wild-type kinases (Homo sapiens, UniProt Q16654). Particulars: kinase PDHK4, 1 µmol/L single concentration, cited from earlier work.
Series [7] deals with panel of 255 wild-type kinases (Homo sapiens, UniProt P35968). Particulars: kinase KDR, 1 µmol/L single concentration, cited from earlier work.
Series [8] deals with panel of 255 wild-type kinases (Homo sapiens, UniProt P49759). Particulars: kinase CLK1, 1 µmol/L single concentration, cited from earlier work.
The target of series [9] is panel of 255 wild-type kinases (Homo sapiens, UniProt Q13464). Particulars: kinase ROCK1, 1 µmol/L single concentration, cited from earlier work.
In series [10] the target is T2, panel of 255 wild-type kinases (Homo sapiens, UniProt O94806).
T2 sequence (O94806 1-890): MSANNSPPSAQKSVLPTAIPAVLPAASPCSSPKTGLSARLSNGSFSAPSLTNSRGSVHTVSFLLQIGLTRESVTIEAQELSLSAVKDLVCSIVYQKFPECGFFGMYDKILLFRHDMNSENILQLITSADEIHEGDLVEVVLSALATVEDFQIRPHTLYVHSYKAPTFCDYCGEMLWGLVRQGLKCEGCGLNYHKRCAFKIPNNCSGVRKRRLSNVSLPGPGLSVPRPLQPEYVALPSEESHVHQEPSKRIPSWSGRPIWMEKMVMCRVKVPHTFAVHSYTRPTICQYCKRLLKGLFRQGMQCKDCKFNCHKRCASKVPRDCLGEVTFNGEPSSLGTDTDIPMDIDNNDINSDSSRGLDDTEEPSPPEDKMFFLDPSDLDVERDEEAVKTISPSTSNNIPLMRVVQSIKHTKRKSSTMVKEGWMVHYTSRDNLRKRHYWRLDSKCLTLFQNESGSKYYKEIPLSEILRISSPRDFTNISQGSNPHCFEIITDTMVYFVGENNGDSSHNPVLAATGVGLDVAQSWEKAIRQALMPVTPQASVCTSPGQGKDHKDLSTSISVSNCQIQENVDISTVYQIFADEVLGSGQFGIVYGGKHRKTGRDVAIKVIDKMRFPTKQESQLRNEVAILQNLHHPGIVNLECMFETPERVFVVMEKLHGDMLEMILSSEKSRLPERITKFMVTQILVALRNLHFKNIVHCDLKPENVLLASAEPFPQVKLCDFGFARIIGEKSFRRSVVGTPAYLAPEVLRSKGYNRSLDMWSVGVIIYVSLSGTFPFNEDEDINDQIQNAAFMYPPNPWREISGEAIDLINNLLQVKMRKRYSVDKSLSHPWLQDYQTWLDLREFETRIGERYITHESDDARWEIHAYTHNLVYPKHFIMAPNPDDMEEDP
Particulars: kinase PKD3, 1 µmol/L single concentration, cited from earlier work.

Setting [11] is: ref DOI: 10.1158/1535-7163.MCT-18-0877.
[12] abbreviates: ref DOI: 10.1371/journal.pone.0092146.

Take `Cc1cc(Nc2ncc(Cl)c(Nc3ccccc3S(=O)(=O)C(C)C)n2)c(OC(C)C)cc1C1CCNCC1` [ceritinib]: in series [1] (setting [11]), the “%-inhibition at 1 µmol/L, CLK2” value is given as 99%. Further, the “%-inhibition at 1 µmol/L, IRAK4” value in [2] (setting [11]) is 1.3%. Besides, the “%-inhibition at 1 µmol/L, IGF1R” value in series [3] (setting [11]) is given as 103%. For the same molecule, the “%-inhibition at 1 µmol/L, SYK” value in series [4] (setting [11]) was 5%. In [5] (setting [11]), the “%-inhibition, MINK” value was 1.46%. In series [6] (setting [11]), the “%-inhibition at 1 µmol/L, PDHK4” value is given as 2.55%. Also, in [7] (setting [11]), the “%-inhibition at 1 µmol/L, KDR” value is given as 58%. Besides, in series [8] (setting [11]), the “%-inhibition at 1 µmol/L, CLK1” value was 99%. The “%-inhibition at 1 µmol/L, ROCK1” value in [9] (setting [11]) was 31%. In series [10] (setting [11]), the “%-inhibition at 1 µmol/L, PKD3” value was 46%.

`O=C(c1ccc(F)c(F)c1Nc1ccc(I)cc1F)N1CC(O)([C@@H]2CCCCN2)C1` [cobimetinib]: the “%-inhibition at 1 µmol/L, CLK2” value in series [1] (setting [11]) is reported as 0.147%. Moreover, in [2] (setting [11]), the “%-inhibition at 1 µmol/L, IRAK4” value is reported as -4.31%. Moreover, the “%-inhibition at 1 µmol/L, IGF1R” value in series [3] (setting [11]) was 6%. For the same molecule, the “%-inhibition at 1 µmol/L, SYK” value in series [4] (setting [11]) is listed as -23%. Besides, the “%-inhibition, MINK” value in series [5] (setting [11]) is listed as -2.67%. The “%-inhibition at 1 µmol/L, PDHK4” value in series [6] (setting [11]) is -1.13%. In addition, the “%-inhibition at 1 µmol/L, KDR” value in [7] (setting [11]) is reported as 13%. The “%-inhibition at 1 µmol/L, CLK1” value in series [8] (setting [11]) was -0.28%. For the same molecule, the “%-inhibition at 1 µmol/L, ROCK1” value in [9] (setting [11]) is given as -2.61%. Moreover, the “%-inhibition at 1 µmol/L, PKD3” value in series [10] (setting [11]) is recorded as 4.41%.

Take `C=CC(=O)Nc1cc(Nc2nccc(-c3cn(C)c4ccccc34)n2)c(OC)cc1N(C)CCN(C)C` [osimertinib]: the “%-inhibition at 1 µmol/L, CLK2” value in series [1] (setting [11]) is listed as 38%. The “%-inhibition at 1 µmol/L, IRAK4” value in [2] (setting [11]) was -2.76%. Moreover, the “%-inhibition at 1 µmol/L, IGF1R” value in series [3] (setting [11]) was 84%. In addition, the “%-inhibition at 1 µmol/L, SYK” value in [4] (setting [11]) was -38%. The “%-inhibition, MINK” value in series [5] (setting [11]) was 21%. In series [6] (setting [11]), the “%-inhibition at 1 µmol/L, PDHK4” value is 0.264%. Also, in series [7] (setting [11]), the “%-inhibition at 1 µmol/L, KDR” value is 46%. The “%-inhibition at 1 µmol/L, CLK1” value in series [8] (setting [11]) is reported as 47%. Moreover, the “%-inhibition at 1 µmol/L, ROCK1” value in series [9] (setting [11]) was -5%. Besides, the “%-inhibition at 1 µmol/L, PKD3” value in series [10] (setting [11]) is on record as 28%.

With `CC(=O)Nc1cccc(-n2c(=O)n(C3CC3)c(=O)c3c(Nc4ccc(I)cc4F)n(C)c(=O)c(C)c32)c1` [trametinib], the “%-inhibition at 1 µmol/L, CLK2” value in series [1] (setting [12]) is recorded as -5%. Also, in [2] (setting [12]), the “%-inhibition at 1 µmol/L, IRAK4” value is on record as -5%. The “%-inhibition at 1 µmol/L, IGF1R” value in series [3] (setting [12]) was -10%. Further, the “%-inhibition at 1 µmol/L, SYK” value in [4] (setting [12]) is -5%. In series [5] (setting [12]), the “%-inhibition, MINK” value was -1.8%. Moreover, in series [6] (setting [12]), the “%-inhibition at 1 µmol/L, PDHK4” value is recorded as -1.65%. Besides, in series [7] (setting [12]), the “%-inhibition at 1 µmol/L, KDR” value is -0.549%. For the same molecule, the “%-inhibition at 1 µmol/L, CLK1” value in [8] (setting [12]) is given as -0.618%. Besides, the “%-inhibition at 1 µmol/L, ROCK1” value in [9] (setting [12]) is 3.21%. Also, the “%-inhibition at 1 µmol/L, PKD3” value in series [10] (setting [12]) is on record as 2.48%.

In the case of `CCCS(=O)(=O)Nc1ccc(F)c(C(=O)c2c[nH]c3ncc(-c4ccc(Cl)cc4)cc23)c1F` [vemurafenib], the “%-inhibition at 1 µmol/L, CLK2” value in series [1] (setting [12]) was -13%. Further, the “%-inhibition at 1 µmol/L, IRAK4” value in [2] (setting [12]) is on record as -4.29%. Besides, the “%-inhibition at 1 µmol/L, IGF1R” value in [3] (setting [12]) is 10%. The “%-inhibition at 1 µmol/L, SYK” value in [4] (setting [12]) was -3.77%. For the same molecule, the “%-inhibition, MINK” value in series [5] (setting [12]) is reported as 10%. In [6] (setting [12]), the “%-inhibition at 1 µmol/L, PDHK4” value is given as -1.4%. The “%-inhibition at 1 µmol/L, KDR” value in series [7] (setting [12]) is 13%. Further, the “%-inhibition at 1 µmol/L, CLK1” value in [8] (setting [12]) was 5%. Besides, the “%-inhibition at 1 µmol/L, ROCK1” value in series [9] (setting [12]) is listed as 1.28%. Also, the “%-inhibition at 1 µmol/L, PKD3” value in [10] (setting [12]) is recorded as -4.7%.
